Assay results taken from patent publication US20220298115A1, “SMALL MOLECULE INHIBITORS OF ACETYL COENZYME A SYNTHETASE SHORT CHAIN 2 (ACSS2)” (Curadev Pharma Pvt. Ltd., priority 2019, published 2022).

Experiments:
human ACSS2 = target: T1, human ACSS2 (Homo sapiens, UniProt Q9NR19); assay: ACSS2 enzyme assay (acetyl-CoA formation, LC-MS/MS); format: biochemical; settings: cytosolic fraction of BT474 cells as ACSS2 source; 100 μM acetate, CoA and ATP; 2 h at 25° C.; read-out: Enzyme Activity (IC50 range)
T1 construct: The cytosolic fraction of BT474 cells was used as a source of the ACSS2 enzyme; endogenous in cells; host or cells: BT474 cells (cytosolic fraction)
Procedure, shortened: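 Enzyme source was BT474 cytosolic fraction (100 ng), preincubated 5 min with compound in 25 mM Tris-HCl pH7.4, 1 mM MgCl2, 1 mM DTT, 0.05% Tween20, 1% DMSO. Reaction started with 100 μM each of acetate, CoA and ATP, 2 h at 25 °C, stopped with TCA; acetyl-CoA quantified by LC-MS/MS.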

[1] = test system: [14C] acetate incorporation in macromolecules, BT474 cells; assay: Cell based [14C] acetate incorporation assay; settings: Homo sapiens, BT-474, 3 h at 37° C., read-out: Cellular Activity (IC50 range)
Procedure, shortened: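 BT474 cells (4×10^4/well, plated overnight) were preincubated with compound for 10 min at 37°C in HBSS. They were then given 0.1 μCi [14C]acetate plus 10 μM unlabelled acetate (both in the added acetate solution) for 3 h at 37°C, 5% CO2. Label incorporated into macromolecules was harvested onto PEI-treated filters and counted by scintillation.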

T1 sequence (Q9NR19 whole entry): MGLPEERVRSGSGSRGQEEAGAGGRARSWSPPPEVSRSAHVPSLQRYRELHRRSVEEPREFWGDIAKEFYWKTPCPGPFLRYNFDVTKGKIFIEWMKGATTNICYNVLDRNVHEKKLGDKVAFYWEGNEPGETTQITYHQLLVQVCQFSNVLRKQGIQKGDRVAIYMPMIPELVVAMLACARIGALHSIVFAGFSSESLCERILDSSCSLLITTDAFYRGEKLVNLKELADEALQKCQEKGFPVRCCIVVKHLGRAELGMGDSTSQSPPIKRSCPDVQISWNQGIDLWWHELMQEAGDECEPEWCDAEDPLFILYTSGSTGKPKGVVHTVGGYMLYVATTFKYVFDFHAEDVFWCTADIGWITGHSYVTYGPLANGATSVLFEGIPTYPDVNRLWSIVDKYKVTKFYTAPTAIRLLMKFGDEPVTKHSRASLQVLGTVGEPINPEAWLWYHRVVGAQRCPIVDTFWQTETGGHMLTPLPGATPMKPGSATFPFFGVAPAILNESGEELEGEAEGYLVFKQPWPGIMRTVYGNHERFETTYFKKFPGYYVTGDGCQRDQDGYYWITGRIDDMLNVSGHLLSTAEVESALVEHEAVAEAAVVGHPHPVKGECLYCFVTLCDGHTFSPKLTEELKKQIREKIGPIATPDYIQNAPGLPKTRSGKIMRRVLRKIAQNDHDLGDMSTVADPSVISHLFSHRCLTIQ

SMILES	IC50 (human ACSS2) [nM]	IC50 [1] [nM]
CC(=O)N1CCN(C(=O)Nc2ccc3nc(-c4ccccc4)c(-c4ccccc4)cc3c2)CC1 [Example 133, 4-acetyl-N-(2,3-diphenylquinolin-6-yl)piperazine-1-carboxamide]	≤ 10000	> 10000
CC[C@@H](O)CNC(=O)Nc1ccc2nc(-c3ccccc3)c(-c3ccccc3)c(C(N)=O)c2c1 [Example 57, (R)-6-(3-(2-hydroxybutyl)ureido)-2,3-diphenylquino-line-4-carboxamide]	< 100	< 100
CC[C@@H](O)CNC(=O)Nc1ccc2nc(-c3ccccc3)c(-c3ccccc3)c(OC)c2c1 [Example 101, (R)-1-(2-Hydroxybutyl)-3-(4-methoxy-2,3-diphenylquinolin-6-yl)urea]	< 100	< 100
CCC(O)CNC(=O)Nc1ccc2nc(-c3ccccc3)c(-c3ccccc3)c(C(=O)NC3CC3)c2c1 (centres unmarked) [Example 64, N-cyclopropyl-6-(3-(2-hydroxybutyl)ureido)-2,3-diphenylquino-line-4-carboxamide]	< 100	< 100
CC[C@@H](O)CNC(=O)Nc1cc2cc(-c3ccccc3)c(-c3ccccc3)nc2cc1F [Example 90, (R)-1-(7-fluoro-2,3-diphenylquinolin-6-yl)-3-(2-hydroxybutyl) urea]	≤ 1000	≤ 1000
CCC(O)CNC(=O)Nc1ccc2nc(C)c(-c3cccnc3)cc2c1 (centres unmarked) [Example 79, 1-(2-hydroxybutyl)-3-(2-methyl-3-(pyridin-3-yl)quinolin-6-yl)urea]	< 100	≤ 1000
CC[C@@H](O)CNC(=O)Nc1ccc2nc(-c3ccccc3)c(-c3ccccc3)c(C(=O)Nc3ccn(C)n3)c2c1 [Example 112, (R)-6-(3-(2-hydroxybutyl)ureido)-N-(1-methyl-1H-pyrazol-3-yl)-2,3-diphenylquino-line-4-carboxamide]	< 100	< 100
CC[C@H](O)CNC(=O)Nc1ccc2nc(-c3ccccc3OC)c(-c3ccccc3F)cc2c1 [Example 36, (S)-1-(3-(2-fluorophenyl)-2-(2-methoxyphenyl)quinolin-6-yl)-3-(2-hydroxybutyl) urea]	< 100	< 100

Continued, values first:

IC50 (human ACSS2) [nM]	IC50 [1] [nM]	SMILES
< 100	< 100	CC[C@@H](O)CNC(=O)Nc1ccc2nc(-c3ccccc3)c(-c3ccccc3F)cc2c1 [Example 15, (R)-1-(3-(2-Fluorophenyl)-2-phenylquinolin-6-yl)-3-(2-hydroxybutyl)urea]
≤ 10000	≤ 10000	CCC(O)CNC(=O)Nc1ccc2nc(-c3cccc(C(C)=O)c3)c(-c3cccc(C(C)=O)c3)cc2c1 (centres unmarked) [Example 21, 1-(2,3-bis(3-acetylphenyl)quinolin-6-yl)-3-(2-hydroxybutyl) urea]
< 100	< 100	CCC(O)CNC(=O)Nc1ccc2nc(-c3ccccc3)c(-c3ccccc3)cc2c1 (centres unmarked) [Example 1, 1-(2,3-diphenylquinolin-6-yl)-3-(2-hydroxybutyl) urea]
< 100	< 100	CCCCCC(=O)Nc1ccc2nc(-c3ccccc3OC)c(-c3ccccc3OC)cc2c1 [Example 119, N-(2,3-bis(2-methoxy-phenyl)quinolin-6-yl) hexanamide]
≤ 10000	> 10000	CCC(O)CNC(=O)Nc1ccc2nc(C(F)(F)F)c(-c3ccccc3)cc2c1 (centres unmarked) [Example 88, 1-(2-hydroxybutyl)-3-(3-phenyl-2-(trifluorometh-yl)quinolin-6-yl)urea]
